In patent US20080260716A1, “Method and Composition for High Level Disinfection Employing Quaternary Ammonium Compounds” (priority 2004, published 2008):
Read-outs that look alike come from different tables or passages of the source.

How the values were obtained:
[1] = test system: Mycobacterium terrae; test: AOAC tuberculocidal test, kill time; assay type: cell-based; conditions: for Kill Time M. terrae: tests 7.1-7.4, 1% of the quat, 50° C.
From the text: These standards are based on the known or possible risk of contamination of a particular medical device by a particular micro-organism, the pathogenic nature of the organism and other principles in infection control. […] The test panels and criteria are different for “low”, “intermediate” or “high-level disinfection”. These terms are herein used in accordance with current Food and Drug Administration (“FDA”) criteria for levels of disinfection which are detailed in Premarket Notification [510(k)] Submissions for Liquid Chemical Sterilants and High Level Disinfectants FDA 1997: “A germicide that inactivates all microbial pathogens except large number of bacterial endospores when used according to labelling”. In brief, the FDA regulatory requirement for high level disinfectants includes as the most challenging test a 100% kill of Mycobacterium tuberculosis var. bovis (or a specific strain of a suitable surrogate, such as Mycobacterium terrae) in 400 p.p.m. hard water in the presence of 2% horse serum in a quantitative tuberculocidal test.
In the following tables unless otherwise specified references to “kill time” mean the time required to achieve complete kill as defined in the relevant AOAC test (more particularly identified in annexure 1). “No kill” means less than 2 log reduction from the initial population. Unless otherwise specified “QUAT” is benzalkonium chloride, specifically Gardiquat NC-50 (Albright & Wilson). Test points for vegetative bacteria (M. terrae) were 2, 5, 10, 20 and 60 mins. Test points for spores were 0.5, 1, 2, 4, 16, 24, 48 hours. The last column in each table indicates whether the tested combination satisfies the FDA requirement for high level disinfection (“HLD”) or fails to do so (“F”).
AOAC tests for determination of High level Disinfection as defined in current FDA criteria (detailed in “Premarket Notification [510(k)] Submissions for Liquid Chemical Sterilants and High Level Disinfectants FDA 1993”.):
AOAC Tuberculocidal Activity of Disinfectants
AOAC Ref No 965.12, AOAC Official Methods of Analysis (1995)

[2] = test system: C. sporogens spores; test: AOAC sporicidal test, kill time; assay type: cell-based; conditions: 50° C.
[3] = test system: B. subtilis spores; test: AOAC sporicidal test, kill time; assay type: cell-based; conditions: 50° C.
[4] = test system: Mycobacterium terrae, B. subtilis, C. sporogens; design: key: satisfies the FDA requirement for high level disinfection (“HLD”); fails to do so (“F”)
[5] = 30 min, 20° C. (Sporox); cited from earlier work
[6] = tests 7.1-7.4, 1% of the quat, 50° C.

Question: For `CCCCCCCCCC[N+](C)(C)CCCCCCCCCC.[Cl-]` [Quat(1), Didecyl Dimethyl Ammonium Chloride], which “Kill Time M. terrae” value [1] is on record?
Answer: <10 min

Question: And the “Kill Time C. sporogens” value ([2]; test 7.1, 1% Quat(1))?
Answer: <2 h

Question: What about the “Kill Time B. subtilis” value ([3]; test 7.1, 1% Quat(1)) of the same molecule?
Answer: <2 h

Question: And the “HLD or F” value [4, 6]?
Answer: HLD

Question: For `CCCCCCCC[N+](C)(C)CCCCCCCC.[Cl-]` [Quat(2), Dioctyl Dimethyl Ammonium Chloride], which “Kill Time M. terrae” value [1] is on record?
Answer: <10 min

Question: And the “Kill Time C. sporogens” value ([2]; tests 7.2-7.4, 1% of the quat)?
Answer: <2 h

Question: And the “Kill Time B. subtilis” value ([3]; tests 7.2-7.4, 1% of the quat)?
Answer: <2 h

Question: What about the “HLD or F” value [4, 6] of the same molecule?
Answer: HLD

Question: With `CC(C)(C)CC(C)(C)c1ccc(OCCOCC[N+](C)(C)Cc2ccccc2)cc1` [benzethonium chloride, reference compound] as the molecule, how does the “effectiveness against Mycobacterium” value ([1]; 0.25%, temperatures above 60° C., with ultrasound) read?
Answer: not effective

Question: What about the “HLD or F” value ([4]; test 1.3, 0.25% benzethonium chloride, 0.25% Triton X-100, 5% isopropanol, 62° C. + ultrasound 20 min/hr) of the same molecule?
Answer: F

Question: For `OO` [peroxide, hydrogen peroxide], which “minimum effective concentration for high-level disinfection” value [5] is on record?
Answer: 6.0%

Question: Which “Kill Time M. terrae” value [1] does the source give for “N-Alkyl Dimethyl Ammonium Chloride [Quat(3)]” here?
Answer: <10 min

Question: What about the “Kill Time C. sporogens” value ([2]; tests 7.2-7.4, 1% of the quat) of the same molecule?
Answer: <2 h

Question: And the “Kill Time B. subtilis” value ([3]; tests 7.2-7.4, 1% of the quat)?
Answer: <2 h

Question: What about the “HLD or F” value [4, 6] of the same molecule?
Answer: HLD
